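Where inhibition never reached the appropriate level, the endpoint shown equals the highest concentration tested. Otherwise, values were interpolated linearly from a five-concentration, 48-hour dose response in 96-well plates. GI50: concentration for 50% inhibition of growth. At the TGI there is no net growth.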
Experiments:
Assay in all cases: inhibition of tumour cell growth, NCI panel, 48 h
[1] = tested on: A498 renal
[2] = tested on: COLO 205 colon
[3] = tested on: HCT-15 colon
[4] = tested on: HL-60(TB) leukemia
[5] = tested on: HS 578T breast
[6] = tested on: M14 melanoma
[7] = tested on: MCF7 breast
[8] = tested on: NCI-H23 lung
[9] = tested on: UACC-62 melanoma
[10] = tested on: LOX IMVI melanoma

Row | Compound | GI50 [1] [µM] | TGI [1] [µM] | GI50 [2] [µM] | TGI [2] [µM] | GI50 [3] [µM] | TGI [3] [µM] | GI50 [4] [µM] | TGI [4] [µM] | GI50 [5] [µM] | TGI [5] [µM] | GI50 [6] [µM] | TGI [6] [µM] | GI50 [7] [µM] | TGI [7] [µM] | GI50 [8] [µM] | TGI [8] [µM] | GI50 [9] [µM] | TGI [9] [µM] | TGI [10] [µM] | GI50 [10] [µM]
1 | N#Cc1ccc(OC(=O)Nc2ccc(Cl)c(Cl)c2)cc1 | 1.44 | 6.92 | 3.79 | 11.4 | 2.94 | 13.8 | 5.7 | 30.9 | 5.02 | 28.9 | 4.3 | 59 | 2.6 | 11.6 | 2.79 | 13.7 | 3.06 | 31.7 |  | 
2 | COC(=O)c1cccc2cccc(C(=O)Nc3ccc(Cl)cc3)c12 |  | > 100 |  | > 62.3 |  | > 53.1 |  | 22.1 |  |  |  | > 100 |  |  |  | > 100 |  |  | > 100 | 
3 | O=S1(=O)OCCOS(=O)(=O)C1Cl |  | > 100 |  | > 100 |  |  |  | > 100 |  |  |  | > 100 |  |  |  | > 100 |  | > 100 |  | 
4 | CC(C(=O)n1c2ccccc2c2ccccc21)N(c1ccccc1)c1ccccc1 (stereo not drawn) |  |  |  | 32 |  | 32.8 |  | 20.6 |  |  |  | 30.5 |  |  |  | 34.6 |  | 31.7 | 30.6 | 
5 | OCCNCCOc1ccc(/C(=C(/Cl)c2ccccc2)c2ccccc2)cc1 |  |  |  | 22.8 |  | 18.6 |  | 4.52 |  |  |  | 3.59 |  |  |  | 28.4 |  | 26.7 | 16.6 | 
6 | COc1cc(C2C(C(=O)Nc3cc(F)c(F)cc3F)=C(C)NC(C)=C2C(=O)Nc2cc(F)c(F)cc2F)ccc1O |  | 55.3 |  | > 100 |  |  |  | 40.7 |  |  |  | > 100 |  |  |  | 52.8 |  |  | 32.9 | 
7 | Cc1cc(C(C)(C)C)cc(Cc2cc(C(C)(C)C)cc(Cc3cc(C(C)(C)C)cc(C)c3O)c2O)c1O |  | 45.1 |  | 29.7 |  | 24.3 |  | 12.5 |  |  |  | 20.5 |  |  |  | 21.7 |  | 18.9 | 21 | 
8 | O=c1oc2ccc(Br)cc2c(=O)n1-c1ccc(F)cc1F | 1.16 | 3.02 | 3.92 | 16.4 | 3.04 | 12.8 |  |  | 2.11 | 8.01 | 1.59 | 7.55 | 2.57 | > 100 | 2.55 | 10.1 | 1.01 | 4.51 | 12.4 | 2.79
9 | [F][Sn]([F])([c]1ccccc1)[c]1ccccc1 |  |  | 1.81 | 3.97 | 1.65 | 3.26 | 1.01 | 3.07 |  |  | 2.08 | 4.45 |  |  | 1.85 | 3.7 | 1.77 | 5.15 | 3.29 | 1.7
10 | Cc1cccc(C(C)C)c1NC(=O)C(=O)C(C(=O)c1ccccc1F)C1OC(=O)c2ccccc21 (stereo not drawn) |  | 45.1 |  | 41 |  | 57.3 |  |  |  |  |  | 38.5 |  |  |  | 40.6 |  | 22.4 | 32.7 | 
11 | Cc1ccc(Nc2nnc(-c3ccc4c(c3)OCO4)o2)c(C)c1 |  | > 100 |  | > 100 |  | > 100 |  |  |  | > 100 |  | > 100 |  | > 100 |  | > 100 |  | > 100 | > 100 | 
12 | CC(=O)OCCOCNC(=S)N/N=C/c1ccc(Br)s1 |  | > 100 |  | > 100 |  | > 100 |  | > 40.2 |  |  |  | > 100 |  |  |  | > 100 |  | > 100 | > 100 | 
13 | COc1cc(C(=O)C/C(CCC(=O)Nc2ccc(Cl)cc2Cl)=N/NC(=O)C(=O)NN)ccc1O |  | > 100 |  | > 100 |  | > 100 |  | > 100 |  |  |  | > 100 |  |  |  | > 100 |  | > 100 | > 100 | 
14 | CC1=C(c2cc(C(=O)Nc3ccc(Cl)cc3)nc(=S)[nH]2)Sc2ccccc2N1 |  | > 100 |  | > 100 |  | > 100 |  | > 100 |  |  |  | > 100 |  |  |  | > 100 |  | > 100 | > 100 | 
15 | c1ccc(CSc2nc3ccccc3nc2-c2cccs2)cc1 |  |  |  | > 100 |  | > 100 |  | > 100 |  |  |  | > 100 |  |  |  | > 100 |  |  |  | 
16 | N.N.NCCCCCCCCCN.O=C([O-])CC(=O)[O-].O=C([O-])CC(=O)[O-].[Pt+4].[Pt+4] | > 100 | > 100 | > 100 | > 100 | > 100 | > 100 | 13.4 | > 100 |  |  | 50.5 | > 100 |  |  | > 100 | > 100 | 23.1 | > 100 | > 100 | > 100
17 | CCOc1ccccc1NC(=O)C(=O)Cc1nc2ccccc2s1 |  | > 100 |  | > 100 |  | > 100 |  | > 100 |  |  |  | > 100 |  |  |  | > 100 |  | > 100 |  | 
18 | O=C1C(=O)N(c2cc(Cl)ccc2Cl)C(=O)C(=O)C1c1nc2ccccc2o1 |  | > 100 |  | > 100 |  | > 100 |  | > 100 |  |  |  | > 100 |  |  |  | > 100 |  | > 100 | > 100 | 
19 | Clc1cc(Cl)cc(Nc2ccc3cc(OCCCN4CCOCC4)ccc3n2)c1 | 1.93 | 8.78 | 1.78 | 3.67 | 1.47 | 4.15 | 2.57 | 5.96 | 1.99 | 5.43 |  |  |  |  |  |  |  |  | 3.05 | 1.62
20 | Cc1nn(C(=O)c2ccc(Cl)cc2)c2c1C(c1ccc(O)cc1)SC(N)=N2 (stereo not drawn) |  |  |  | > 10 |  | > 10 |  | > 10 |  | > 10 |  | > 10 |  | > 10 |  | > 10 |  | > 10 | > 10 | 
21 | CC(C)(C)OC(=O)N1N=NC2C1C1CC(OCc3ccccc3)(OCc3ccccc3)C2O1 (stereo not drawn) |  | > 100 |  | > 100 |  | > 100 |  | 31.9 |  |  |  | > 100 |  |  |  | 49.2 |  | > 100 | 33.7 | 
22 | COCOc1ccc(C2(O)Oc3cc(OCOC)ccc3C2C)c(O)c1 (stereo not drawn) |  | 28.8 |  | 32.2 |  | 22.3 |  | 44 |  |  |  | 30.4 |  | 27.9 |  | 23.9 |  | 25.5 | 34.6 | 
23 | CC1CN1c1c(C(=O)/C=C/c2ccc(Cl)cc2)c(-c2ccccc2)nn(C)c1=O (stereo not drawn) |  | > 10 |  | 3.67 |  | 3.55 |  | 5.22 |  |  |  | 5.63 |  |  |  | 6.97 |  | 5.69 | 4.17 | 

Reference: PubChem BioAssay (NCI)
